Patent publication US4803221A, “Anthracene derivatives” (priority 1987, dated 1989)
Counter-ions that a name gives are not always drawn.

Columns and labels:
[1] = test system: lymphocytic leukemia P388/0; assay: Lymphocytic Leukemia P388/0 Test; format: in vivo, mouse (CD2-F1); parameters: LD20: unit: mg/kg; conditions: ip days 1, 5, 9; for LD20: doses on a mg/kg basis; for T/C × 100% (Excluding 30 Day Survivors): median survival time treated/control, at the optimal dose of the compound (Table I), active if ≥120%
From the text: (§1) Methods for evaluating the antitumor activity of these compounds are essentially those used in the Tumor Panel by the Developmental Therapeutics Program, Division of Cancer Treatment, National Cancer Institute, A. Goldin, et al., Methods in Cancer Research, Vol. XVI, p.165, Academic Press (1979). Some modifications, in dose level and schedule have been made to increase the testing efficiency.
(§2) CD2-F1 mice, of the same sex, weighing 20±3 g are used for this test. Control and test animals are injected intraperitoneally with a suspension of ~10^6 viable P388/0 tumor cells on day 0. In each test, several dose levels which bracket the LD20 of the compound are evaluated; each dose level group contains six animals. The test compounds are prepared either in physiologic saline containing 0.05% Tween 80 or distilled water containing 5% dextrose and are administered intraperitoneally on days 1, 5, and 9 relative to tumor implant. Doses are on a mg/kg basis according to individual animals' body weights. The day of death for each animal is recorded, the median identified for each group and the ratios of median survival time for treated (T)/control (C) Groups are calculated. The criterion for activity is T/C×100≥120%.

Herpes simplex 1/vero = Herpes simplex 1/vero plaque inhibition screen; format: cell-based; conditions: for Zone of Inhibition: plaque inhibition screen
From the text: The column headings labeled Score, Toxicity, and Zone of Inhibition refer to the plaque inhibition screen while the IC50 heading to the plaque reduction screen.

[2] = Lymphocytic Leukemia P388/0 Test; format: in vivo, mouse (CD2-F1); parameters: LD20: unit: mg/kg; conditions: mouse, in vivo; ip days 1, 5, 9; doses on a mg/kg basis; read-out: highest nontoxic dose where the LD20 was not determined (values in parentheses in LD20 column)
From the text: as §1, §2

| Compound | LD20 [1] | T/C × 100% (Excluding 30 Day Survivors) [1] | Toxicity (Herpes simplex 1/vero) | MTD [2] | Zone of Inhibition (Herpes simplex 1/vero) |
| --- | --- | --- | --- | --- | --- |
| Cl.OCC(CO)(CO)NCc1c2ccccc2c(Cl)c2ccccc12 [Example 21, 2-(((10-Chloro-9-anthracenyl)methyl)amino)-2-hydroxymethyl-1,3-propanediol hydrochloride] | 440 | +140% |  |  |  |
| 2-(((2-Ethyl-9-anthracenyl)methyl)amino)-2-methyl-1,3-propanediol and 2-(((3-ethyl-9-anthracenyl)methyl)amino)-2-methyl-1,3-propanediol hydrochloride.1/4H2 O [Example 31C] |  |  | Y |  |  |
| CC(CO)(CO)NCc1c2ccccc2c(Cl)c2ccc(C(C)(C)C)cc12.Cl [Example 41C, 2-(((2-tert-butyl-10-chloro-9-anthracenyl)methyl)amino)-2-methyl-1,3-propanediol hydrochloride.1/4H2 O] |  | +125% |  |  |  |
| CCCCc1c2ccccc2c(CNC(C)(CO)CO)c2ccccc12.Cl [Example 45B, 2-(((10-Butyl-9-anthracenyl)methyl)amino)-2-methyl-1,3-propanediol hydrochloride] | 212 | +170% |  |  |  |
| CC(CO)(CO)NCc1c2ccccc2c(Cl)c2ccc(Cl)cc12.Cl [Example 22C, 2-(((2,10-dichloro-9-anthracenyl)methyl)amino)-2-methyl-1,3-propanediol hydrochloride] |  | +200% |  | 400 mg/kg |  |
| CC(CO)(CO)NCc1c2ccccc2c(Cl)c2cc(Cl)ccc12.Cl [Example 23, 2-(((3,10-dichloro-9-anthracenyl)methyl)amino)-2-methyl-1,3-propanediol hydrochloride] |  | +210% |  | 300 mg/kg |  |
| CC(CO)(CO)NCc1c2ccccc2c(C#N)c2ccccc12.Cl [Example 14B, 10-((1,1-Bis(hydroxymethyl)ethylamino)methyl)-9-anthracenecarbonitrile hydrochloride] | 387 | +190% |  |  |  |
| CC(CO)(CO)NCc1cccc2c(Cl)c3ccccc3cc12 [Example 37E, 2-(((10-Chloro-1-anthracenyl)methyl)amino)-2-methyl-1,3-propanediol methanesulfonate.9/20 H2 O] | 140 | +145% |  |  |  |
| CC(CO)(CO)NCc1c2ccccc2c(Cl)c2c(Cl)cccc12.Cl [Example 5C, 2-(((4,10-dichloro-9-anthracenyl)methyl)amino)-2-methyl-1,3-propanediol hydrochloride] |  | +204% |  | 300 mg/kg |  |
| CCSc1c2ccccc2c(CNC(C)(CO)CO)c2ccccc12.Cl [Example 19B, 2-(((10-ethylthio-9-anthracenyl)methyl)amino)-2-methyl-1,3-propanediol hydrochloride] | 625 | +145% |  |  |  |
| CC(CO)(CO)NCc1c2ccccc2c(CCCl)c2ccccc12.Cl [Example 4B, 2-(((10-(2-chloroethyl)-9-anthracenyl)methyl)amino)-2-methyl-1,3-propanediol hydrochloride] |  | +225% |  | 300 mg/kg |  |
| CC(CO)(CO)NCc1c2ccccc2cc2ccc(Cl)cc12.Cl [Example 17C, 2-(((2-Chloro-9-anthracenyl)methyl)amino)-2-methyl-1,3-propanediol hydrochloride] | 150 | +170% |  |  |  |
| C[S+]([O-])c1c2ccccc2c(CNC(C)(CO)CO)c2ccccc12.Cl (stereo not shown) [Example 12B, 2-Methyl-2-(((10-methylsulfinyl-9-anthracenyl)methyl)amino)-1,3-propanediol hydrochloride] | 55 | +220% |  |  |  |
| CCCCOc1c2ccccc2c(CNC(C)(CO)CO)c2ccccc12.Cl [Example 44F, 2-(((10-Butoxy-9-anthracenyl)methyl)amino)-2-methyl-1,3-propanediol hydrochloride] | 120 | +120% |  |  |  |
| CC(CO)(CO)NCc1c2ccccc2c(N2CCOCC2)c2ccccc12 [Example 28B, 2-Methyl-2-((((10-N-morpholino)-9-anthracenyl)methyl)amino)-1,3-propanediol methanesulfonate.3/4H2 O] | 225 | +235% |  |  |  |
| C[C@H](O)[C@@](C)(CO)NCc1c2ccccc2cc2ccccc12 (relative stereo) [Example 30G, (+-)(2R*,3S*)-2-((9-Anthracenylmethyl)amino)-2-methyl-1,3-butanediol hydrochloride 1/4H2 O] | 180 | +136% |  |  |  |

| Compound | LD20 [1] | T/C × 100% (Excluding 30 Day Survivors) [1] | Toxicity (Herpes simplex 1/vero) | MTD [2] | Zone of Inhibition (Herpes simplex 1/vero) |
| --- | --- | --- | --- | --- | --- |
| CC(CO)(CO)NCc1c2ccccc2c(-n2ccnc2)c2ccccc12 [Example 29B, 2-(((10-(1H-Imidazol-1-yl)-9-anthracenyl)methyl)amino)-2-methyl-1,3-propanediol hydrochloride 11/10 H2 O] | 100 | +235% |  |  | 32 |
| CC(CO)(CO)NCc1cccc2cc3ccccc3cc12 [Example 15E, 2-((1-Anthracenylmethyl)amino)-2-methyl-1,3-propanediol hydrochloride] | 7 | +204% |  |  |  |
| CCOCC(CO)(CO)NCc1c2ccccc2cc2ccccc12.Cl [Example 32C, 2-((9-Anthracenylmethyl)amino)-2-ethoxymethyl-1,3-propanediol hydrochloride] | 625 | +130% |  |  | 23.2 |
| CCOc1c2ccccc2c(CNC(C)(CO)CO)c2ccccc12.Cl [Example 24B, 2-(((10-Ethoxy-9-anthracenyl)methyl)amino)-2-methyl-1,3-propanediol hydrochloride] | 96 | +218% |  |  |  |
| CC(CO)(CO)NCc1cccc2c(Br)c3ccccc3cc12.Cl [Example 16C, 2-(((10-Bromo-1-anthracenyl)methyl)amino)-2-methyl-1,3-propanediol hydrochloride] |  | +225% |  | 300 mg/kg |  |
| CC(CO)(CO)NCc1c2ccccc2c(CO)c2ccccc12 [Example 6, 2-(((10-Hydroxymethyl-9-anthracenyl)methyl)amino)-2-methyl-1,3-propanediol hydrochloride 1/4H2 O] | 180 | +170% |  |  |  |
| CC(CO)(CCO)NCc1c2ccccc2cc2ccccc12.CS(=O)(=O)O (stereo not shown) [Example 36G, 2-((9-anthracenylmethyl)amino)-2-methyl-1,4-butanediol methanesulfonate] | 120 | +125% |  |  |  |
| COCCOc1c2ccccc2c(CNC(C)(CO)CO)c2ccccc12 [Example 27B, 2-(((10-(2-Methoxyethoxy)-9-anthracenyl)methyl)amino)-2-methyl-1,3-propanediol hydrochloride 1/4H2 O] | 180 | +260% |  |  |  |
| CC(CO)(CO)NCc1c2ccccc2c(S(C)(=O)=O)c2ccccc12.Cl [Example 26B, 2-Methyl-2-(((10-methylsulfonyl-9-anthracenyl)methyl)amino)-1,3-propanediol hydrochloride] |  | +228% |  | 300 mg/kg |  |
| Cc1cc2c(Cl)c3ccccc3c(CNC(C)(CO)CO)c2cc1C.Cl [Example 40B, 2-(((10-Chloro-2,3-dimethyl-9-anthracenyl)methyl)amino)-2-methyl-1,3-propanediol hydrochloride] |  | +205% |  | 300 mg/kg |  |
| CC(CO)(CO)NCc1c2ccccc2c(SCCO)c2ccccc12.Cl [Example 20B, 2-(((10-(2-hydroxyethylthio)-9-anthracenyl)methyl)amino)-2-methyl-1,3-propanediol hydrochloride] | 440 | +145% |  |  |  |
| CC(C)C(CO)(CO)NCc1c2ccccc2cc2ccccc12 [Example 35C, 2-((9-Anthracenylmethyl)amino)-2-isopropyl-1,3-propanediol methanesulfonate] | 450 | +150% |  |  |  |
| CC(CO)(CO)NCc1c2ccccc2cc2cc(Cl)ccc12 [Example 18, 2-(((3-Chloro-9-anthracenyl)methyl)amino-2-methyl-1,3-propanediol hydrochloride] |  | +181% |  | 675 mg/kg |  |
| CC(CO)(CO)NCc1c2ccccc2c(Br)c2ccccc12.Cl [Example 8B, 2-(((10-Bromo-9-anthracenyl)methyl)amino)-2-methyl-1,3-propanediol hydrochloride] |  | +200% |  | 450 mg/kg |  |
| COCC(C)(CO)NCc1c2ccccc2cc2ccccc12.Cl (stereo not shown) [Example 33D, 2-((9-Anthracenylmethyl)amino)-3-methoxy-2-methyl-1-propanol hydrochloride] |  |  |  |  | 35 |
